Measured values reported in patent publication US20070059720A9 (priority 2004, published 2007).

What was measured:
ezrin = test: Immunoblot of ezrin in MCF-7 cells; format: cell-based, human; conditions: 24 hours
Procedure: (§1) In Panel B, immunoprecipitation of E or T treated MCF-7 cells was performed followed by immunoblot analysis.

EBP50 [1] = test: Immunoblot of EBP50 in T47D vector and MTA2 clones; format: cell-based, human
ERα [2] = test: Immunoblot of ERα in T47D vector and MTA2 clones; format: cell-based, human
EBP50 [3] = test: Immunoblot of EBP50 in MCF-7 cells; format: cell-based, human; conditions: 24 hours
Procedure: as §1

PR-B = test: PR ubiquitin assay; format: cell-based, human; conditions: 2 hrs in the presence of a proteasomal inhibitor
Procedure: Cells were staved in PRF MEM for 24 hours, and then 2×10^6 cells were seeded into 100 mm tissue culture plates, and incubated for another 24 hours. Cells were transiently transfected with Fugene 6 reagent (Roche, Indianapolis, Ind.) following the manufacturer's protocol. Each plate was transfected with 1 μg pcDNA 3.1-PR-B (subcloned by BamHI digestion from pSG5-human PR-B clone (Richer et al., 1998) obtained from Dr. Kathryn Horwitz, University of Colorado Health Sciences Center, 1 μg MKP3-V5, and 3 μg pcDNA-HAUbiquitin (kindly provided by Dr. Xinhua Feng, Baylor College of Medicine). Twenty-four hours later, cells were switched to serum free, PRF MEM, incubated for another 24 hours. In some experiments were pretreated with the 50 μM MG-132 (Calbiochem, LaJolla, Calif.) for 2 hours, and then treated with vehicle (ethanol), estradiol (E2, 100 nM), or 4-OH-Tam (100 nM) for an additional 2 hours. Cells were then harvested in 1 ml cell lysis buffer supplemented with 50 μM MG-132. Cell lysates from each treatment were precleared with the addition of 50 μl 50% protein A slurry (Amersham), and immunoprecipitated with the addition of anti-PR antibodies C-19 and H190 (2 μg each), and 20 μl 50% protein A slurry. […]

ER-positive tumors = conditions: cited from earlier work
ERα [4] = test: Transient transactivation assay with ERE-luciferase reporter; format: cell-based; conditions: U20S cells with exogenous ER or MCF-7 cells with endogenous ER; EBP50 expression
Description: Transient transactivation assays with an ERE-luciferase reporter were utilized in U20S cells expressing exogenous ER (Panel A), or MCF-7 cells expressing endogenous ER (Panel B). ER activity was enhanced with EBP50 expression in the presence of estrogen.

cyclin D1 (CCND1) = test: Immunoblot of CCND1 in MCF-7 transfectants; format: cell-based, human; conditions: MKP3 overexpressing cells; 2 hours
Procedure: Cells grown in 100 mm dishes were starved in phenol red-free (PRF), serum-free MEM (Specialty Media, Phillipsburg, N.J.) for 48 hours, and were then treated for 2 hours with vehicle (ethanol), estrogen (100 nM, 20), or OHT (100 nM). After treatment, cells were rinsed twice with ice-cold phosphate-buffered saline (PBS) and were then lysed immediately with 200 μl of cell lysis buffer (20 mM Tris HCl, pH 7.4, 150 mM NaCl, 1 mM B-glycerophosphate, 1 mM sodium orthovanadate, and 10% glycerol plus 1:100 proteinase inhibitor cocktail III) (Calbiochem, LaJolla, Calif.) per 100 mm tissue culture. The cell lysates were cleared by centrifugation at 16,100×g for 10 minutes at 4° C. Protein concentration was determined with the BCA Protein Assay kit (Pierce, Rockfold, Ill.) according to the manufacturer's directions. Equal amount of cell extracts were resolved under denaturing conditions by electrophoresis in 8-10% polyacrylamide gels containing sodium dodecyl sulfate (SDS-PAGE), and transferred to nitrocellulose membranes by electroblotting (Schleicher & Schuell, Keene, NH). […]
As expected with two hours of estrogen treatment, no induction of the two PR isoforms were detected in either the control vector (Con 1 and 2), or in the MKP3-transfected cells (FIG. 11A). […]

[5] = adjuvant therapy, patients with ER-positive tumors

**Q.** With `C[C@]12CC[C@@H]3c4ccc(O)cc4CC[C@H]3[C@@H]1CC[C@@H]2O` [E2, 17β-Estradiol] as the compound, how does the ezrin levels (ezrin) read?
**A.** similarly induced

**Q.** And the EBP50 levels (EBP50 [1])?
**A.** increased

**Q.** What about the ERα protein levels (ERα [2]) of the same compound?
**A.** decreased

**Q.** And the EBP50 levels (EBP50 [3])?
**A.** similarly induced

**Q.** What does the source list for `CC/C(=C(\c1ccccc1)c1ccc(OCCN(C)C)cc1)c1ccccc1` [Tam, tamoxifen]?
**A.** level of polyubiquitin-conjugated PR-B (PR-B): increased; 10-year recurrence risk (ER-positive tumors; [5]): halves; reduction of the risk of death from metastatic disease (ER-positive tumors; [5]): 26%; share of patients with ER-positive disease who respond (ER-positive tumors; human, in vivo): 60%; effect on ER activity (ERE-luciferase) (ERα [4]): antagonist and reversed estrogen's effects; CCND1 levels (cyclin D1 (CCND1)): High levels
